Experimental data from patent publication US20030162837A1, “Carboxyfullerenes and methods of use thereof” (priority 2002, published 2003).
pIC50: −log10 of the molar value. Where “and” joins values, the source holds several entries; their conditions need not be identical. Identical values can stand only once. Entries after “also recorded” stand apart in the source; their conditions may differ.

Tests used:
[1] = treated animals; cited from earlier work
monkeys = conditions: mean survival 25 months; cited from earlier work
[2] = Superoxide elimination: cytochrome c reduction (hypoxanthine/xanthine oxidase); type: biochemical; conditions: for pIC50: superoxide from hypoxanthine/xanthine oxidase
Protocol: (a) Superoxide was generated by oxidation of hypoxanthine by xanthine oxidase and assayed by reduction of cytochrome c (at absorbance maximum […]).
The ability of C3 to eliminate superoxide radical was assessed using three separate methods. In the first, O2 ? was generated by metabolism of hypoxanthine by xanthine oxidase (reaction 1). O2 ? production was determined by following cytochrome c reduction (absorbance max 550 nm) on a microtiter platereader as described (Quick et al., 2000). Stock solutions of cytochrome c were evaluated on a Beckman DU650 spectrophotometer to verify that that cytochrome c stock was fully oxidized prior to use, and to confirm the concentration of the stock. The reaction was run in the presence of superoxide dismutase (bovine SOD1, Sigma) to determine the non-specific reduction of cytochrome c (i.e. the rate of reaction in the absence of O2 ? ).

xanthine oxidase [3] = target: T1, xanthine oxidase (Homo sapiens, UniProt P47989); assay: Xanthine oxidase metabolism of hypoxanthine (purines by HPLC); type: biochemical
Protocol: Hypoxanthine and its metabolites xanthine and uric acid were analyzed by HPLC at specific times during the xanthine oxidase: hypoxanthine reaction. The reaction was allowed to run for 40 or 100 minutes and was stopped by the addition of trifloroacetic acid (0.1% TFA) to denature xanthine oxidase. Samples were injected onto the HPLC and separated on a C18 column.

rats = rats treated from age 96 weeks through end of life; control 147+/−1; cited from earlier work
Fisher 344 rats [4] = conditions: cited from earlier work
Fisher 344 rats [5] = conditions: same dose; cited from earlier work
C57B6 mice = conditions: chronic treatment starting at 18 months of age; cited from earlier work
Drosophila = conditions: cited from earlier work
[6] = Oxygen consumption studies with H2O2 (re-evolution of oxygen); type: biochemical
[7] = system: C57B6NIH male and female mice; assay: Longevity trial with mice (Kaplan-Meier survival, weights); type: in vivo
Protocol: FIG. 4 illustrates the survival curve for mice treated by the process of the instant invention vs. control. […]. The date of spontaneous death for each mouse was recorded, and used to calculate the lifespan. Lifespan of each mouse was calculated in months because mice received from the NIA rodent colony have their birth month, but not their specific birth date, recorded. Average survival was calculated for each treatment and the mean lifespans were compared using a t-test with significance set to p<0.05 (actual p=0.033). The lifespan of control mice was 23.5±5.5 months (mean±SD, n=8) and of C3-treated mice was 28.7±3.4 (mean±SD, n=9). This calculation includes one C3-treated mouse which is still alive as of Feb. 21, 2002, and whose lifespan was included as of this date. Continued survival by this mouse will further increase the average difference in lifespan, and will decrease the p value (increase the significance). […].
Twelve month old C57B6NIH male and female mice (equal numbers) were purchased from the National Institute on Aging (NIA) Aging Rodent Colony. Mice shipped from this colony were not selected in any way for health, tumors or other disabilities, and all mice obtained from the colony were subsequently enrolled in the study. Mice were randomly placed in same-sex numbered cages, two per cage, ear-punched for identification, and weighed. Mice were then trained on a rotorod twice per week for three sessions, and were then tested on the rotorod in three sessions to measure motor performance at baseline. Cages were then assigned to receive either treatment A or treatment B by an observer who was blind to what these treatments would be.
Solution A or solution B was placed in the water bottles, and solutions were topped-off twice weekly, and filtered to remove any particulates biweekly by an individual blind to the identity of the solutions. At 19 months of age, mice were weighed again, and underwent another round of rotorod training and testing. Mice were allowed to die spontaneously, and their date of death were recorded by the Animal Housing Facility staff as part of the normal operating procedure of the facility. […] When animals died, the cage number, identity of the animal, and the date of death were recorded on the death notice, which was then sent to the laboratory, where the information was entered into the database.
In addition, because longevity was increased by the oral dosing of a drug, it is the first practical method for achieving increased longevity in metazoans.

[8] = Pharmacokinetics study in mice; type: in vivo
From the text: […]. […] […].

[9] = Inhibition of pyrogallol autoxidation to purpurogallin; type: biochemical
Protocol: Pyrogallol autooxidation to purpurogallin was assayed as described. Briefly, Tris-cacodylic acid buffer (55.6 mM) buffer, pH 8.2, was prepared with 1 mM diethyltriaminopentaacetic acid (DTPA) (TCB solution). The pyrogallol solution contained 10 mM pyrogallol in 10 mM HCl. To 0.9 ml of TCB, 0.1 ml of pyrogallol solution was added, rapidly vortexed, and placed in the cuvette. The increase in absorbance at 420 nm was followed for 60 sec in a Beckman DU 650 spectrophotometer at room temperature. The rate of pyrogallol autoxidation in the presence of SOD (100 U/ml) was subtracted from that of the control reaction without SOD to determine the rate that was specifically due to reaction with O2 ? .

xanthine oxidase [10] = target: T1, xanthine oxidase; assay: O2 consumption during the xanthine oxidase reaction (Clark-type O2 electrode); type: biochemical; conditions: in the presence of C3 compared with SOD
Protocol: O2 consumption during the xanthine oxidase reaction was determined using an oxymetry chamber equipped with a Clark-type O2 electrode (Hansatech, UK).

[11] = Characterization of C3 after exposure to superoxide (HPLC, mass spectrometry); type: physicochemical
From the text: Samples were then immediately injected onto the HPLC.
To maximize the amount of modified C3 present should structural changes occur, hexacarboxylic acid C3 and its decarboxylation products were exposed to superoxide generated by the xanthine oxidase reaction for four consecutive reactions by re-addition of the substrate, hypoxanthine. […] Compounds were extracted from the reaction mixture, and re-injected onto the HPLC. […] Peaks were collected and evaluated by mass spectrometry, but no changes in the molecular ions were observed.

[12] = Characterization of C3 after exposure to H2O2 (HPLC, spectroscopy); type: physicochemical; conditions: H2O2 20-200 mM; HPLC and spectroscopy

T1 sequence (P47989 whole entry, species assumed): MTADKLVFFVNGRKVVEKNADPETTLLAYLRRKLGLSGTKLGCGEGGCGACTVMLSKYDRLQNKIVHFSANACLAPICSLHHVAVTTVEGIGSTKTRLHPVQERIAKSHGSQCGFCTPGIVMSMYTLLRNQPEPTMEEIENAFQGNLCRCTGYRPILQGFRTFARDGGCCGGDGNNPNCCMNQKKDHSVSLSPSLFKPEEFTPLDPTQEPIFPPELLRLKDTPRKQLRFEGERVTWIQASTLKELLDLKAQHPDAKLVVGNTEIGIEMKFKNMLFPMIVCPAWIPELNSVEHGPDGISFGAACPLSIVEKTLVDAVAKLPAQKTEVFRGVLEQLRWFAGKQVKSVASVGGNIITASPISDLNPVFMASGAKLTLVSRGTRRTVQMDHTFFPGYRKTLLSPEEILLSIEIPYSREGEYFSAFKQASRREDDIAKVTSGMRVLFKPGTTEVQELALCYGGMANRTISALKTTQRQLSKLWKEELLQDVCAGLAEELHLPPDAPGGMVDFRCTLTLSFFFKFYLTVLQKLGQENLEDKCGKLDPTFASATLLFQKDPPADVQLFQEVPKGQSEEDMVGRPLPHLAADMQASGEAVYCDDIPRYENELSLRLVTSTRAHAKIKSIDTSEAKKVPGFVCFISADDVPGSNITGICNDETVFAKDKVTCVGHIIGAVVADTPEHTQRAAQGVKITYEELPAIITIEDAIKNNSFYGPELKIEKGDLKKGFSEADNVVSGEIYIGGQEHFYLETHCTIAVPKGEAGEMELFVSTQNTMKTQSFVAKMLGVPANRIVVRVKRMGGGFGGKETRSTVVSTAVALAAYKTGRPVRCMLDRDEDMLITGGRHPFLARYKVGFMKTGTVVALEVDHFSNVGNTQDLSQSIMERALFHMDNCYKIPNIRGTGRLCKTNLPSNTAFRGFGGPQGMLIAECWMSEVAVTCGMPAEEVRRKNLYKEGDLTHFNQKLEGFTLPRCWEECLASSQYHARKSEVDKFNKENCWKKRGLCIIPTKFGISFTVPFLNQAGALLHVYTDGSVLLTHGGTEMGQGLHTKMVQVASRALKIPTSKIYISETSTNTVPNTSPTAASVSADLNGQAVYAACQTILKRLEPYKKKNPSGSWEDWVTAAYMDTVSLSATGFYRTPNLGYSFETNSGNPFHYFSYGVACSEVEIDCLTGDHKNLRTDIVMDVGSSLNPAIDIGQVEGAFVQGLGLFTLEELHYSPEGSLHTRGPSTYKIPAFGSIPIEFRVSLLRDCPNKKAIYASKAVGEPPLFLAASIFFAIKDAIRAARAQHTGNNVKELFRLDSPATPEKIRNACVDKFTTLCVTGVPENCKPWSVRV

## O=CC[C@@H](O)[C@H](O)[C@H](O)CO [2-deoxyglucose]
[1]
  body temperature: lowered
  plasma insulin levels: decreased
monkeys
  lifespan of one treated monkey: 38 months

## O=C(O)c1ccc(/C2=C3\C=CC(=N3)/C(c3ccc(C(=O)O)cc3)=c3/cc/c4[n]3[Mn]([Cl])[n]3c2ccc3/C(c2ccc(C(=O)O)cc2)=C2/C=CC(=N2)\C=4c2ccc(C(=O)O)cc2)cc1 [MnTBAP, reference compound]
[2]
  pIC50: 4.30

## O=c1[nH]c(=O)c2c[nH]nc2[nH]1 [Oxypurinol, reference compound]
Xanthine oxidase [3]; concentrations similar to those previously reported (data not shown)
  inhibition of purine metabolism: completely inhibit

## C#CCN(C)[C@H](C)Cc1ccccc1 [deprenyl]
rats
  lifespan: 198+/−2 weeks
Fisher 344 rats [4]; not statistically significant
  increase in longevity: 7%
Fisher 344 rats [4]; treatment from 18 months of age, controls 28
  mean survival: 30 months
Fisher 344 rats [5]
  effect on mortality and lifespan: greater mortality and shortened lifespan
C57B6 mice
  survival benefit: failed to show any survival benefit
Drosophila
  effect on lifespan: did not show an increase in lifespan

## SOD: superoxide dismutase (bovine SOD1, Sigma) [reference compound]
[2]; reaction with superoxide, cytochrome c reduction
  Reaction rate (k): 2e+09 M⁻¹ s⁻¹
[2]
  pIC50: 6.30

## catalase [reference compound]
[6]
  re-evolution of oxygen from H2O2: rapid re-evolution of oxygen

## e,e,e C60[C(COOH)2]3 [C3]
[7]; C3-treated mice
  effect on weight: not accompanied by a reduction in weight
[7]; C57B6 mice, C3 0.5 mg/kg/day in drinking water from age 12 months through end of life, n=9, control 23.5±5.5, 0.5 mg/kg/day
  lifespan (mean±SD): 28.7±3.4 months and 28.7 months
[7]; females, control 27±1
  weight at 19 months, females: 29+1 grams
[7]; males, control 35±4
  weight at 19 months, males: 35±6 grams
[8]; mice
  plasma half-life: 8 h
  route of clearance: excretion through both the liver and kidney
[8]; oral (e.g. drinking water) relative to intravenous, intraperitoneal or subcutaneous
  fraction of dose absorbed when given orally: 1/15
[2]; 500 μM
  concentration of superoxide in the reaction: zero
[2]
  pIC50: 3.48
Xanthine oxidase [3]; 300 μM
  inhibition of xanthine oxidase metabolism of hypoxanthine: < 10%
Xanthine oxidase [3]; 500 μM
  inhibition of xanthine oxidase metabolism of hypoxanthine: 15%
[9]
  pIC50: 3.44
Xanthine oxidase [10]
  oxygen utilization by xanthine oxidase: similar
[6]
  re-evolution of oxygen from H2O2: significantly slower than that seen with catalase
[11]
  structural change after exposure to superoxide: No change in the size or distribution of peaks; also recorded: no permanent chemical or structural changes
[12]
  structural change after exposure to H2O2: No change; also recorded: no change in the size or distribution of peaks; also recorded: no permanent chemical or structural changes
